Measurements as given in patent US20230047825A1, “ANTIMICROBIAL PEPTIDES” (priority 2019, published 2023).
“And” between values parts separate entries of the source, which are not always exact repeats. Equal entries are not always repeated. Marks after values point to notes of the source that are not given here. Where a SMILES comes first, the peptide text is derived from it.

Legend:
[1] = test system: panel of Gram-negative or Gram-positive pathogens; conditions: RPMI (5% FCS); Gram-negative isolates, all but the P. aeruginosa isolates
Experimental: MICs were determined on the same plates as the FICs to increase reproducibility.
Methods: The natural AMP (termed AMP1) was modified to produce synthetic variants, AMPs 1a, 2a, 2b, 3a and 3b. Minimum inhibitory concentrations (MICs) were determined using the microbroth dilution assay with Mueller Hinton broth (MHB) or RPMI (with 5% FBS) and stability in serum was tested by conducting MICs in MHB containing 10% FBS. Synergy experiments were performed following a checkerboard protocol. Cytotoxicity was tested against HEK293 and HeLa immortalised human cell-lines using the XTT viability stain and by quantifying haemolysis of human red blood cells. Patch clamp analysis was performed using the Port-a-Patch® automated patch-clamp system on DPhPE/DPhPG (model for a Gram-negative plasma membrane) or DPhPG (Gram-positive) model membranes challenged with peptide. The murine lung infection model was performed using the agar bead model with Staphylococcus aureus strain NCTC 13616 (EMRSA-15).

[2] = Maximum Tolerated Dose (MTD) assessment, IV TID q8h: mortality, body weight, clinical observations; format: in vivo, mouse; design: key to Irritability / Hyperactivity / Inc. Startle / Inc. Touch / Dec. Startle Response / Dec. Touch Response / Inc. Exploration / Dec. Exploration / Pinna / Placing / Tremor / Dec. Spont. Activity / Straub Tail / Reactivity / Righting / Ataxia / Convulsion C.T.C-T / Low Limb Post / Abdominal Tone / Limb Tone / Grip Strength / Salivation F.V. / Lacrimation / Diarrhea / Body Temperature / Piloerection / Inc. Palpebral Size / Dec. Palpebral Size / Others / Death: “−” no effects; “±”: Slight to moderate effects; +: Severe effects; “C.”: Cyanosis; “D.”: Depth; E: Edema; conditions: for Body Weight, individual animals No. 1-4 / Mortality (total number of deaths/total number of animals): IV; for Body Temperature / Death / Dec. Palpebral Size / Diarrhea / Inc. Palpebral Size / Lacrimation / Others / Piloerection / Respiration / Salivation F.V. / Skin Color: AUTONOMIC; for Body Temperature / Death / Dec. Palpebral Size / Diarrhea / Inc. Palpebral Size / Lacrimation / Others / Piloerection / Respiration / Salivation F.V. / Skin Color / Dec. Exploration / Dec. Startle Response / Dec. Touch Response / Hyperactivity / Inc. Exploration / Inc. Startle / Inc. Touch / Irritability / Pinna / Placing / Ataxia / Convulsion C.T.C-T / Dec. Spont. Activity / Grip Strength / Limb Tone / Low Limb Post / Reactivity / Righting / Straub Tail / Tremor / Abdominal Tone: 5 minutes after 1st dosing, ICR mice, animals No. 1-4; for Dec. Exploration / Dec. Startle Response / Dec. Touch Response / Hyperactivity / Inc. Exploration / Inc. Startle / Inc. Touch / Irritability / Pinna / Placing: BEHAVIORAL; for Ataxia / Convulsion C.T.C-T / Dec. Spont. Activity / Grip Strength / Limb Tone / Low Limb Post / Reactivity / Righting / Straub Tail / Tremor / Abdominal Tone: NEUROLOGIC
Experimental: Tolerability analysis was conducted to determine the upper limit of D-PLEUROCIDIN-KR dosage. Test article solutions were intravenously (IV) administered to immunocompetent ICR mice with the dose schedule and concentrations indicated in the study design in the table below.
The animals were not infected. Doses were IV administered thrice (TID) with 8 h intervals (q8h) between doses. Animals were humanely euthanized after 3 days of the last treatment or at humane endpoints.
The MTD assessment was performed with immunocompetent female ICR mice, weighing 22 f 2 g. All animals were specific pathogen free.
Test articles were administered to animals by IV injections following the dose schedule, volumes, and concentrations indicated the Table above for MTD study. […] Animals were humanely euthanized if severe acute toxicity was observed during the experimental period.
The adverse effects were monitored at 5 minutes via cage-side observation after each subsequent IV administration on Day 1. Animals were observed again for mortality at 72 h after the last treatment. Body weights were recorded before each treatment and at 72 h after the last treatment. If overt toxicity was observed after the 1st or 2nd dose of a group, the 2nd or 3rd dose of that group was not administered.
Any adverse events observed were summarized. List of scores from observation assessments were also recorded.

[3] = as above; format: in vivo, mouse; conditions: 5 mg/kg (IV, TID, q8h)
[4] = 5 mg/kg, TID q8h, 24 h of 3rd dosing
[5] = 5 mg/kg, TID q8h, 48 h of 3rd dosing
[6] = 5 mg/kg, TID q8h, 72 h of 3rd dosing
[7] = 10 mg/kg, 24 h of 3rd dosing (2nd and 3rd doses not administered)
[8] = 10 mg/kg, 48 h of 3rd dosing (2nd and 3rd doses not administered)
[9] = 10 mg/kg, 72 h of 3rd dosing (2nd and 3rd doses not administered)

## CC(C)C[C@@H](NC(=O)[C@@H](Cc1ccc(O)cc1)NC(=O)[C@@H](Cc1c[nH]cn1)NC(=O)[C@H](NC(=O)[C@@H](CC(C)C)NC(=O)[C@@H](C)NC(=O)[C@@H](C)NC(=O)[C@@H](CCCNC(=N)N)NC(=O)CNC(=O)[C@H](NC(=O)[C@@H](Cc1c[nH]cn1)NC(=O)[C@@H](CCCNC(=N)N)NC(=O)CNC(=O)[C@H](NC(=O)[C@@H](Cc1c[nH]cn1)NC(=O)[C@@H](C)NC(=O)[C@@H](C)NC(=O)[C@@H](CCCNC(=N)N)NC(=O)[C@@H](CCCNC(=N)N)NC(=O)[C@@H](Cc1ccccc1)NC(=O)[C@@H](Cc1ccccc1)NC(=O)[C@@H](CO)NC(=O)CNC(=O)[C@@H](Cc1c[nH]c2ccccc12)NC(=O)CN)C(C)C)C(C)C)[C@H](C)O)C(N)=O [D-pleurocidin-KR] (HELM PEPTIDE1{G.[dW].G.[dS].[dF].[dF].[dR].[dR].[dA].[dA].[dH].[dV].G.[dR].[dH].[dV].G.[dR].[dA].[dA].[dL].[dT].[dH].[dY].[dL].[am]}$$$$V2.0; N-terminus assumed)
[1]
  effective concentration (MIC) in RPMI: ≤ 4 µg/mL
[2]; 5 mg/kg
  adverse effects after the first dose administration: severe cyanosis, labored respiration and edema
[2]; 5 mg/kg, TID q8h, 1st dosing (recorded before treatment)
  Body Weight, individual animals No. 1-4: 25 g (3×) and 23 g
[2]; 5 mg/kg, TID q8h, 2nd dosing
  Body Weight, individual animals No. 1-4: 25 g (3×) and 23 g
[2]; 5 mg/kg, TID q8h, 3rd dosing
  Body Weight, individual animals No. 1-4: 25 g and 24 g (2×) and 23 g
[2]; [4]
  Body Weight, individual animals No. 1-4: 26 g and 25 g (2×) and 23 g
  Mortality (total number of deaths/total number of animals): 0/4
[2]; [5]
  Body Weight, individual animals No. 1-4: 25 g (3×) and 23 g
  Mortality (total number of deaths/total number of animals): 0/4
[2]; [6]
  Body Weight, individual animals No. 1-4: 26 g (3×) and 24 g
  Mortality (total number of deaths/total number of animals): 0/4
[2]; 5 mg/kg, TID, q8h, 5 min of 1st dosing
  Mortality (total number of deaths/total number of animals): 0/4
[2]; 5 mg/kg, TID, q8h, 5 min of 2nd dosing
  Mortality (total number of deaths/total number of animals): 0/4
[2]; 5 mg/kg, TID, q8h, 5 min of 3rd dosing
  Mortality (total number of deaths/total number of animals): 0/4
[2]; 5 mg/kg, TID, q8h, 1 h of 1st dosing
  Mortality (total number of deaths/total number of animals): 0/4
[2]; 5 mg/kg, TID, q8h, 1 h of 2nd dosing
  Mortality (total number of deaths/total number of animals): 0/4
[2]; 5 mg/kg, TID, q8h, 1 h of 3rd dosing
  Mortality (total number of deaths/total number of animals): 0/4
[2]; 10 mg/kg
  mortality after the 1st dosing: one of the four animals was found dead
[2]; 10 mg/kg, 1st dosing (recorded before treatment)
  Body Weight, individual animals No. 1-4: 22 g (2×) and 23 g (2×)
[2]; 10 mg/kg, 2nd dosing (2nd and 3rd doses not administered)
  Body Weight, individual animals No. 1-4: 21 g (2×) and dead and 23 g
[2]; 10 mg/kg, 3rd dosing (2nd and 3rd doses not administered)
  Body Weight, individual animals No. 1-4: 21* g (2×) and 23* g
[2]; 10 mg/kg, 5 min of 1st dosing
  Mortality (total number of deaths/total number of animals): 0/4
[2]; 10 mg/kg, 5 min of 2nd dosing (2nd and 3rd doses not administered)
  Mortality (total number of deaths/total number of animals): 1/4
[2]; 10 mg/kg, 5 min of 3rd dosing (2nd and 3rd doses not administered)
  Mortality (total number of deaths/total number of animals): 1/4
[2]; 10 mg/kg, 1 h of 1st dosing
  Mortality (total number of deaths/total number of animals): 1/4
[2]; 10 mg/kg, 1 h of 2nd dosing (2nd and 3rd doses not administered)
  Mortality (total number of deaths/total number of animals): 1/4
[2]; 10 mg/kg, 1 h of 3rd dosing (2nd and 3rd doses not administered)
  Mortality (total number of deaths/total number of animals): 1/4
[2]; [7]
  Body Weight, individual animals No. 1-4: 21* g (2×) and 24* g
  Mortality (total number of deaths/total number of animals): 1/4
[2]; [8]
  Body Weight, individual animals No. 1-4: 21* g (2×) and 24* g
  Mortality (total number of deaths/total number of animals): 1/4
[2]; [9]
  Body Weight, individual animals No. 1-4: 22* g (2×) and 23* g
  Mortality (total number of deaths/total number of animals): 1/4
[2]; 15 mg/kg/24h i.v. (data not shown)
  tolerability i.v. in ICR mice: tolerated
[2]; 30 mg/kg, 1st dosing (recorded before treatment)
  Body Weight, individual animals No. 1-4: 21 g and 22 g and 23 g and 24 g
[2]; 30 mg/kg, 2nd dosing
  Body Weight, individual animals No. 1-4: dead
[2]; 30 mg/kg, 5 min of 1st dosing
  Mortality (total number of deaths/total number of animals): All animals were found dead and 4/4
[2]; 30 mg/kg, 1 h of 1st dosing
  Mortality (total number of deaths/total number of animals): All dead
[2]; 30 mg/kg, 1 h of 3rd dosing
  Mortality (total number of deaths/total number of animals): All dead
[2]; 10 and 30 mg/kg dosages
  tolerability: not tolerated
[2]; 5 mg/kg IV
  Body Temperature: −
  Death: −
  Dec. Palpebral Size: −
  Diarrhea: −
  Inc. Palpebral Size: −
  Lacrimation: −
  Others: E
  Piloerection: −
  Respiration: D±
  Salivation F.V.: −
  Skin Color: C±
  Dec. Exploration: −
  Dec. Startle Response: −
  Dec. Touch Response: −
  Hyperactivity: −
  Inc. Exploration: −
  Inc. Startle: −
  Inc. Touch: −
  Irritability: −
  Pinna: −
  Placing: −
  Ataxia: −
  Convulsion C.T.C-T: −
  Dec. Spont. Activity: −
  Grip Strength: −
  Limb Tone: −
  Low Limb Post: −
  Reactivity: −
  Righting: −
  Straub Tail: −
  Tremor: −
[2]; 10 mg/kg IV
  Body Temperature: −
  Death: −
  Dec. Palpebral Size: −
  Diarrhea: −
  Inc. Palpebral Size: −
  Lacrimation: −
  Others: E
  Piloerection: −
  Respiration: D±
  Salivation F.V.: −
  Skin Color: C±
  Hyperactivity: −
  Inc. Exploration: −
  Inc. Startle: −
  Inc. Touch: −
  Irritability: −
  Ataxia: ±
  Convulsion C.T.C-T: −
  Dec. Spont. Activity: ±
  Limb Tone: +
  Reactivity: −
  Righting: −
  Straub Tail: −
  Tremor: −
[2]; 30 mg/kg IV
  Death: +
[2]; 10 mg/kg IV, 10 mg/kg
  Dec. Exploration: ± and +
  Dec. Startle Response: − and ±
  Dec. Touch Response: ± and +
  Pinna: ± and +
  Placing: ± and −
  Abdominal Tone: − and + and ±
  Grip Strength: ± and −
  Low Limb Post: ± and −
[2]; 5 mg/kg IV, 5 mg/kg
  Abdominal Tone: − and ±
[2]; before dose optimisation, tolerated dose vs effective dose
  in vivo therapeutic index: approximately 20 fold
[3]
  tolerability: tolerated
